# Read-outs that look alike come from different tables or passages of the source.
# Assays:
# Format in all cases: cell-based
# [1] = test system: Plasmodium falciparum K1 strain; assay: Chloroquine resistant-Plasmodium falciparum growth inhibition screening test; settings: for EC50: chloroquine resistant K1 strain, 3H-hypoxanthine, 48 + 24 hours, read-out: 50% growth inhibition concentration P. falciparum K1; for Selective toxicity: chemotherapy index = EC50 rat L6 cells / EC50 chloroquine resistant P. falciparum
# Method: In the present example, protozoa of Plasmodium falciparum K1 strain was used. RPMI-1640 medium sterilized with a filter to which human serum was added to be 5%, was used in the experiment. Malarial parasites were cultured under 3% O2 concentration, 4% Co2 concentration, 93% N2 concentration, and at a temperature of 37° C.
# The compounds of the present invention to be used in the present test and the positive target drug (chloroquine) were dissolved in DMSO to make a test solution of a predetermined concentration. Cultured malarial parasite infected-erythrocytes were collected by centrifugation, and diluted with non-infected erythrocyte so that the early infection rate is 0.15%. Hematocrit level at that time was 2.5%. 200 μL of malaria infected solution was added to wells of a 96-well culture plate, and adjusted by adding a test solution containing drug of a predetermined concentration or a drug-free DMSO. Test solutions were taken by duplicates. After culturing for 48 hours at 37° C., 0.5 μCi radioactive tritium (3H)-labeled hypoxanthine was added to each well. After further culturing for 24 hours under the same conditions, it was collected on a glass fiber filter and washed with distilled water. Radiation intensity was measured with a beta plate liquid scintillation counter (Wallac), and malarial parasite infection rates of the test solution added group and of the control group were calculated. Growth inhibition rate was calculated with the following formula based on the malarial parasite infection rate obtained in the above, to obtain a 50% growth inhibition concentration (EC50). Growth inhibition rate (%)={1−(b−a)/(c−a)}×100 a: early infection rate b: infection rate when test solution was added c: infection rate of the control
# [2] = Growth inhibition test of rat L6 cells
# Method: (§1) Rat derived-L6 cells (rat skeletal myoblast cell) were used. As medium, RPMI1640 medium was supplemented so that L-glutamin (200 mM) is 1%, and fetal bovine serum 10%, and the medium was cultured under CO2 concentration 5%, at 37° C. The compounds of the present invention and the target drugs to be used in the test were dissolved in DMSO, to make a test solution of a predetermined concentration. Pre-culture was conducted and medium containing cells which have entered the logarithmic growth phase was taken to wells of a 96-well culture plate. Then, a test solution containing drug of a predetermined concentration or a drug-free DMSO was added. Test solutions were taken by duplicates. Culture plate was cultured for 72 hours in an incubator, to test the growth inhibition activity. Test was conducted as follows.
# (§2) 10 μl of Alamar Blue aqueous solution was added to each well, and the resultant was further cultured for 2 hours. Next, the culture plate was placed on a fluorescent micro-plate reader (Spectramax Gemeni XS; US Molecular Device), radiated at an excited wavelength of 536 nm. Fluorescent intensity was measured at 588 nm, and residual rate of L6 cells of the test solution added group, and that of the control was calculated. Based on the cell residual rate obtained in the above, growth inhibition rate to L6 cells was calculated, to obtain a 50% growth inhibition concentration (EC50). Growth inhibition rate (%)={(C−A)/(B−A)}×100 A: primary cell count B: cell count of control, 3 days after C: cell count of wells added with a sample, 3 days after […]
# [3] = test system: Trypanosoma brucei rhodensiense (STIB 900 strain); assay: African trypanosome protozoa growth inhibition screening test; settings: read-out: 50% growth inhibiting concentration Trypanosoma brucei rhod.
# Method: In the present example, protozoa of Trypanosoma brucei rhodensiense (STIB 900 strain), a trypamastigote living in blood stream, was used. The medium used in the experiment was a MEM medium which was sterilized with a filter and supplemented with 25 mM N-2-hydroxyethylpiperazine-2-ethansulfonic acid […]), 1 g/L glucose, 1% MEM non-essential amino acid, 0.2 mM 2-mercaptoethanol, 2 mM sodium pyruvate, 0.1 mM hypoxanthine, and 15% heat-treated horse serum. The protozoa was cultured in an atmosphere of CO2 concentration 5%, at a temperature of 37° C.
# The compounds of the present invention to be used in the present test and the positive target drug (melarsoprol) were dissolved in DMSO to make a test solution of a predetermined concentration. A medium containing 8×10^3 protozoa, and a test solution containing a drug of a predetermined concentration or a drug-free DMSO were added to wells of a 96-well culture plate, and subsequently, medium was added so that the amount in each well becomes 100 μL. Test solutions were taken by duplicates. After culturing the culture plate for 72 hours in an incubator, growth inhibition activity was tested. Test was conducted as follows. 10 μL of Alamar Blue aqueous solution was added to each well, and the resultant was further cultured for 2 hours. Next, the culture plate was placed on a fluorescent micro-plate reader (Spectramax Gemeni XS; US Molecular Device), radiated at an excited wavelength of 536 nm. Fluorescent intensity was measured at 588 nm, to calculate the trypanosome protozoa infected rate of the test solution added-group, and of the control group. From the protozoan infection rate obtained in the above, growth inhibition rate was calculated with the following formula, to obtain a 50% growth inhibition concentration (EC50). Growth inhibition rate (%)={1−(b−a)/(c−a)}×100 a: early infection rate b: infection rate when test solution was added c: infection rate of the control
# [4] = test system: Trypanosoma brucei rhodensiense (STIB 900 strain); assay: as above; settings: chemotherapy index = EC50 rat L6 cells / EC50 African trypanosome protozoa
# [5] = test system: Rat derived-L6 cells (rat skeletal myoblast cell); assay: Growth inhibition test of rat L6 cells; settings: 72 hours
# Method: as §1, §2
# [6] = test system: Trypanosoma cruzi (Tulahuen C2C4 strain); assay: American trypanosome protozoa growth inhibition screening test; settings: Tulahuen C2C4 strain in rat L6 cells, 96 hours, CPRG/Nonidet, read-out: 50% growth inhibition concentration Trypanosoma cruzi
# Method: In the present example, amastigote and trypomastigote infected with rat L6 cells of protozoa of Trypanosoma cruzi (Tulahuen C2C4 strain) were used. As medium used in the test, RPMI 1640 medium containing L6 cells was supplemented so that L-glutamine (200 mM) becomes 1%, fetal bovine serum becomes 10%, which was cultured under CO2 concentration 5%, at 37° C.
# The compounds of the present invention to be used in the test and the positive target agent (benznidazole) were dissolved in DMSO to make a test solution of a predetermined concentration. A medium containing 5×10^3 protozoa was added to wells of a 96-well culture plate, and pre-cultured for 48 hours. After replacing the medium, test solution containing drug of a predetermined concentration or a drug-free DMSO was added. Test solutions were taken by duplicates. After culturing the culture plate in an incubator for 96 hours, growth inhibition activity was tested. Test was conducted as follows.
# 50 μL of CPRG/Nonidet was added to each well, and allowed to rest for 2 to 6 hours. Next, the culture plate was placed on a fluorescent micro-plate reader, and the absorbance was measured at 540 nm. Growth inhibition rate was calculated with the following formula based on the protozoan infection rate which was obtained by calculating trypanosome infection rate of the test solution added group and control group, to obtain a 50% growth inhibition concentration (EC50). Growth inhibition rate (%)={1−(b−a)/(c−a)}×100 a: early infection rate b: infection rate when test solution was added c: infection rate of the control
# [7] = test system: Leishmania donovani (MHOM/ET/67/L82 strain); assay: Leishmania protozoa growth inhibition screening test; settings: MHOM/ET/67/L82 strain amastigote, pH 5.4, 72 hours, Alamar Blue, read-out: 50% growth inhibition concentration Leishmania donovani
# Method: In the present example, Leishmania donovani (MHOM/ET/67/L82 strain) was used. Protozoa was subcultured in Syrian Golden hamster, from which an amastigote was obtained. In the experiment, SM medium supplemented with 10% heat-treated bovine fetal serum was used, which was adjusted to pH 5.4, and cultured in an atmosphere of 5% CO2 concentration, at 37° C.
# The compounds of the present invention to be used in the present test and the positive target drug (miltefosine) were dissolved in DMSO to make a test solution of a predetermined concentration. After adding a medium containing a predetermined number of protozoa to wells of a 96-well culture plate and pre-treating, concentration of the amastigote was measured with CASY cell analysis system (Scharfe, Germany). Then, test solution containing a drug of a predetermined concentration or a drug-free DMSO was added. Test solutions were taken by duplicates. After culturing the culture plate for 72 hours in an incubator, growth inhibition activity was tested. Test was conducted as follows.
# 10 μL of Alamar Blue aqueous solution was added to each well, and the resultant was further cultured for 2 hours. Next, the culture plate was placed on a fluorescent micro-plate reader (Spectramax Gemeni XS; US Molecular Device), radiated at an excited wavelength of 536 nm. Fluorescent intensity was measured at 588 nm, and infection rate of leishmania protozoa of the test solution added-group and control was calculated, to obtain a 50% growth inhibition concentration (EC50). Growth inhibition rate (%)={1−(b−a)/(c−a)}×100 a: early infection rate b: infection rate when test solution was added c: infection rate of the control
# [8] = L6 cells (rat skeletal myoblast), Alamar Blue (Table 2), read-out: 50% growth inhibition concentration Cytotoxicity L6
# [9] = Trypanosoma brucei, STIB900, STIB 900 strain, blood stream form, 72 hours, Alamar Blue
# [10] = Alamar Blue (Table 2), read-out: 50% growth inhibition concentration Cytotoxicity L6
# [11] = Alamar Blue (Table 3), read-out: 50% growth inhibiting concentration Cytotoxicity L6
# [12] = STIB 900 strain, blood stream form, 72 hours, Alamar Blue
Structure (SMILES),EC50 [1],"EC50 [5, 10]","EC50 [5, 11]","EC50 [3, 12]",EC50 [7],further results
CCn1c(=O)/c(=C/C=C2\Sc3ccccc3N2C)s/c1=C\c1cccc[n+]1CCOCCOCCOC [A-6],,,,,,"EC50 ([1]; Plasmodium falciparum, 72 h): 190 nM; Selective toxicity [1]: 236; EC50 at 72 h [2, 8]: 44000 nM; EC50 [3, 9]: 130 nM; Selective toxicity [4]: 340"
CCn1c(=O)/c(=C/C=C2\Sc3ccccc3N2C)s/c1=C\c1cccc[n+]1CCCCC(=O)O [A-12],,,,,,"EC50 ([1]; Plasmodium falciparum, 72 h): 210 nM; Selective toxicity [1]: 84; EC50 at 72 h [2, 8]: 17000 nM; EC50 [3, 9]: 900 nM; Selective toxicity [4]: 19"
CCn1c(=O)/c(=C/C=C2\Sc3ccccc3N2C)s/c1=C\c1cccc[n+]1CCO [A-5],,,,,,"EC50 ([1]; Plasmodium falciparum, 72 h): 270 nM; Selective toxicity [1]: 150; EC50 at 72 h [2, 8]: 42000 nM"
CCn1c(=Cc2cccc[n+]2C)sc(=CC=C2Sc3ccccc3N2C)c1=O [A-4],120 nM,76000 nM,76000 nM,410 nM,,
CCn1c(=Cc2cc[n+](CC)c3ccccc23)sc(=CC=C2C=Cc3ccccc3N2C)c1=O [A-14],140 nM,9100 nM,9100 nM,41 nM,200 nM,EC50 [6]: 1200 nM
"Nc1nc(N)nc(Nc2ccc([As]3SCC(CO)S3)cc2)n1 (centres unmarked) [melarsoprol, reference compound]",,,,,,"EC50 at 72 h [2, 11]: 7800 nM; EC50 ([3]; Trypanosoma brucei, STIB900, 72 h): 6 nM; Selective toxicity [4]: 1300"
C=CCn1c(=Cc2oc3ccccc3[n+]2C)sc(=CC=C2Sc3ccccc3N2C)c1=O [A-13],,,13000 nM,110 nM,47 nM,"EC50 ([5]; Alamar Blue (Table 5), read-out: 50% growth inhibition concentration Cytotoxicity L6): 13000 nM"
"CCCCCCCCCCCCCCCCOP(=O)([O-])OCC[N+](C)(C)C [miltefosine, reference compound]",,,,,,EC50 ([7]; Leishmania donovani): 280 nM
CCn1c(=Cc2oc3ccccc3[n+]2CC)sc(=CC=C2N(C)c3ccccc3C2(C)C)c1=O [A-8],14 nM,1800 nM,1800 nM,300 nM,56 nM,EC50 [6]: 990 nM
"O=C(Cn1ccnc1[N+](=O)[O-])NCc1ccccc1 [benznidazol, benznidazole, reference compound]",,,,,,EC50 ([6]; Trypanosoma cruzi): 870 nM
CCn1c(=Cc2sc3c4ccccc4ccc3[n+]2CC)sc(=CC=C2SCCN2C)c1=O [A-9],74 nM,8100 nM,8100 nM,140 nM,23 nM,EC50 [6]: 4100 nM

# Source: patent US8193224B2, “Medicinal composition for prevention or treatment of parasitic protozoan infection” (Fujifilm Corporation, priority 2004, dated 2012)
